# Tests used:
# [1] = tested on: SKOV3 human ovarian cancer; conditions: 2 nmol intravenous, 4 h
# Excerpt: (§1) This test example studied the imaging manifestations of PEG-Cy7-RP-RGD in different tumor models. A U87 human glioma mouse in-situ model, an SKOV3 human ovarian cancer in-situ model, a 4T1 mouse breast cancer lung metastasis model and an MB-49 human bladder cancer lung metastasis model were respectively set up.
# A […] human ovarian cancer mouse in-situ tumor model was set up in FIG. 10.
# [2] = Absorption and fluorescence spectra of probes (optical properties); type: physicochemical; conditions: for Fluorescence quantum yield: ICG in DMSO as standard
# [3] = tested on: 4T1 mouse breast cancer lung metastasis; conditions: 2 nmol intravenous, 4 h
# Excerpt: as §1
# (§2) A 4T1 mouse breast cancer lung metastasis model and an MB-49 mouse bladder cancer lung metastasis model were respectively set up in FIG. 11.
# [4] = tested on: MB-49 human bladder cancer lung metastasis; conditions: 2 nmol intravenous, 4 h
# Excerpt: as §1, §2
# [5] = tested on: MB-49 human bladder cancer cells; test: Fluorescence imaging in mouse subcutaneous tumor model of MB-49 bladder cancer cells; type: in vivo, Balb/c nude mouse
# Description: A mouse subcutaneous tumor model of human bladder cancer cells was set up by injecting MB-49 human bladder cancer cells in Balb/c nude mouse legs. After the tumor grew to a proper size, four fluorescent probes were respectively intravenously injected (2 nmol of probe was injected for each mouse), and then fluorescence imaging was performed on mice at different time points after injection.
# U87 human glioma = conditions: 2 nmol intravenous, 4 h
# Excerpt: as §1
# PSMA = biological target: T1, PSMA (Homo sapiens, UniProt Q04609); test: PSMA-targeted prostate cancer fluorescence imaging; conditions: in vivo
# T1 construct: highly expressed PSMA in prostate cancer; endogenous in cells
# T1 sequence (Q04609 whole entry, species assumed): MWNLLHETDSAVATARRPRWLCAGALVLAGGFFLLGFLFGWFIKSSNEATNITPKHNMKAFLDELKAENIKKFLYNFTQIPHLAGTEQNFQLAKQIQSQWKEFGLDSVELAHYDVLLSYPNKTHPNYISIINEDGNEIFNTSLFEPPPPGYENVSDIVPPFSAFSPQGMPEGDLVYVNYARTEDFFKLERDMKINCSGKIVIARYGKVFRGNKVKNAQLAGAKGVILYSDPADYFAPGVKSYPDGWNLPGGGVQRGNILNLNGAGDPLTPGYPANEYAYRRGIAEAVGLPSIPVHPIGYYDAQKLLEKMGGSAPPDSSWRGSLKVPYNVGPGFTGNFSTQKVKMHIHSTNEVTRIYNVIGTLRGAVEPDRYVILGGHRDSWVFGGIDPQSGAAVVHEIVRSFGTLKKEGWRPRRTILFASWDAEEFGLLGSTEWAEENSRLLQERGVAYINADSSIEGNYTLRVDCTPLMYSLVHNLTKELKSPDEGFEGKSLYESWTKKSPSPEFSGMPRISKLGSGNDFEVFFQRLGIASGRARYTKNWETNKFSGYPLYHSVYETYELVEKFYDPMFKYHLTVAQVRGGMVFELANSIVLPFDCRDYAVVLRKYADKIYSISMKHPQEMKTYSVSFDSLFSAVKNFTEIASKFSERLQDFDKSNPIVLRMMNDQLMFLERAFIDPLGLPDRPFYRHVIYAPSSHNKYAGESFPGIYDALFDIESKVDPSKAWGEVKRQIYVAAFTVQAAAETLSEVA
# Excerpt: (§3) The inventors conducted the above test to the fluorescent probes prepared in examples 2-5.
# tumors = test: The above tests repeated on probes of examples 2-5 (targeted fluorescence imaging of tumors); conditions: in vivo
# Excerpt: as §3
smiles,measurement,setting,value
COCCOCCOCCN1/C(=C/C=C2\CCCC(/C=C/C3=[N+](CCOCCOCCOC)c4ccc(S(=O)(=O)O)cc4C3(C)C)=C2Oc2ccc(CCC(=O)N[C@@H](CCCNC(=N)N)C(=O)NCCOCCOCCOCCOCCC(=O)NCCCCC3NC(=O)[C@@H](Cc4ccc(O)cc4)NC(=O)[C@H](CC(=O)O)NC(=O)CNC(=O)[C@H](CCCNC(=N)N)NC3=O)cc2)C(C)(C)c2cc(S(=O)(=O)[O-])ccc21 (stereo partly drawn) [PEG-Cy7-RP-RGD],Fluorescence signal at tumor site,[1],strong fluorescence signal
same,Signal-to-noise ratio at ovarian tumor site,[1],about 4.0
same,Absorption peak,[2]; 100% Fetal bovine serum,777 nm
same,Emission peak,[2]; 100% Fetal bovine serum,795 nm
same,Luminance (molar extinction coefficient × fluorescence quantum yield),[2]; 100% Fetal bovine serum,20700
same,Molar extinction coefficient,[2]; 100% Fetal bovine serum,184000 M⁻¹ cm⁻¹
same,Stokes shift,[2]; 100% Fetal bovine serum,18 nm
same,Fluorescence quantum yield,[2]; 100% Fetal bovine serum,11.2%
same,Change of fluorescence property in 100% fetal bovine serum versus PBS,[2]; 100% fetal bovine serum vs PBS,did not obviously change
same,Absorption peak,[2]; PBS buffer (pH = 7.4),776 nm
same,Emission peak,[2]; PBS buffer (pH = 7.4),794 nm
same,Luminance (molar extinction coefficient × fluorescence quantum yield),[2]; PBS buffer (pH = 7.4),19300
same,Molar extinction coefficient,[2]; PBS buffer (pH = 7.4),174000 M⁻¹ cm⁻¹
same,Stokes shift,[2]; PBS buffer (pH = 7.4),18 nm
same,Fluorescence quantum yield,[2]; PBS buffer (pH = 7.4),11.1%
same,Fluorescence signal at tumor site,[3],strong fluorescence signal
same,Signal-to-noise ratio of small lung metastasis lesion,[3],about 4
same,Fluorescence signal at tumor site,[4],strong fluorescence signal
same,Signal-to-noise ratio of small lung metastasis lesion,[4],about 4
same,TBR (tumor signal-to-noise ratio) relative to the other three probes,"[5]; 24 h after intravenous injection, 2 nmol per mouse",twice or more
same,Tissue background (non-specific) signal in normal tissue,[5]; in vivo imaging,ultra-low
same,"Tumor signal-to-noise ratio (TBR), compared with the other probes","[5]; intravenous, 2 nmol per mouse",obviously improved
same,Fluorescence signal at tumor site,U87 human glioma,strong fluorescence signal
same,Signal-to-noise ratio at tumor site,U87 human glioma; head skin cut,up to 6.3
COCCOCCOCCN1/C(=C/C=C2\CCCC(/C=C/C3=[N+](CCOCCOCCOC)c4ccc(S(=O)(=O)O)cc4C3(C)C)=C2Oc2ccc(CCC(=O)N[C@@H](CCCNC(=N)N)C(=O)NCCOCCOCCOCCOCCC(=O)NCCCC[C@H](NC(=O)NC(CCC(=O)O)C(=O)O)C(=O)O)cc2)C(C)(C)c2cc(S(=O)(=O)[O-])ccc21 (stereo partly drawn) [example 5],Binding to PSMA in prostate cancer,PSMA,can bind to highly expressed PSMA in prostate cancer
same,Prostate cancer-specific fluorescence imaging,PSMA,achieving prostate cancer-specific fluorescence imaging
COCCOCCOCCN1/C(=C/C=C2\CCCC(/C=C/c3[se]c4cc(S(=O)(=O)O)ccc4[n+]3CCOCCOCCOC)=C2c2ccc(CCC(=O)N[C@@H](CCNC(=N)N)C(=O)NCCOCCOCCOCCOCCC(=O)NCCCCC3NC(=O)[C@@H](Cc4ccc(O)cc4)NC(=O)[C@H](CC(=O)O)NC(=O)CNC(=O)[C@H](CCCNC(=N)N)NC3=O)cc2)[Se]c2cc(S(=O)(=O)O)ccc21 (stereo partly drawn) [example 3],Usability for targeted fluorescence imaging of tumors,tumors,can be used for targeted fluorescence imaging of tumors
same,Fluorescence property compared to example 1,[2],comparable to that in example 1
COCCOCCOCCN1/C(=C/C=C2\CCCC(/C=C/C3=[N+](CCOCCOCCOC)c4ccc(S(=O)(=O)O)cc4C3(C)C)=C2Oc2ccc(CCC(=O)O)cc2)C(C)(C)c2cc(S(=O)(=O)[O-])ccc21 [PEG-Cy7-COOH],Fluorescent brightness compared with PEG-Cy7-Cl,[2]; PBS,doubled
same,Increase of fluorescence quantum yield compared with PEG-Cy7-Cl,[2]; PBS,3.7%
same,Absorption peak,[2]; PBS buffer (pH = 7.4),772 nm
same,Emission peak,[2]; PBS buffer (pH = 7.4),794 nm
same,Luminance (molar extinction coefficient × fluorescence quantum yield),[2]; PBS buffer (pH = 7.4),19800
same,Molar extinction coefficient,[2]; PBS buffer (pH = 7.4),228000 M⁻¹ cm⁻¹
same,Stokes shift,[2]; PBS buffer (pH = 7.4),22 nm
same,Fluorescence quantum yield,[2]; PBS buffer (pH = 7.4),8.7%
